Data published in patent publication US6703049B2, “Angiogenesis inhibitor” (priority 2000, dated 2004).
Read-outs that look alike come from different tables or passages of the source.

Tests used:
BCE cells = experiment: Tube formation assay in 3-D fibrin gel culture; type: cell-based, bovine; conditions: 100 nM, bFGF 10 ng/ml, 48 or 96 hours
Protocol: To investigate the effect of arsenolite on the maturation of angiogenesis, particularly, tubular structure formation of capillary endothelial cells, BCE cells were cultured using three dimensional cultures on the fibrin gel.
Fibrin gels were prepared by following a reported procedure (Bastaki M, Nelli E E, Dell'Era P, Rusnati M, Molinari-Tosatti M P, Parolini S, Auerbach R, Ruco L P, Possati L, Presta M, Basic fibrolast growth factor-induced angiogenic phenotype in mouse endothelium. A study of aortic and microvascular endothelial cell lines. Arterioscler Thromb Vasc Bio March 1997; 17(3): 454-64). Briefly, 2.5 mg/ml of fibrinogen (Calbiochem, San Diego, Calif.) was dissolved in DMEM and cultured BCE cells were added to a final concentration of 10^5 cells/ml, and clotting was then initiated by addition of thrombin (0.5 unit/ml). The mixture was immediately transferred into 24-well plates and allowed to form gel for 5 minutes at 37° C. Following get formation, 0.5 ml of medium with or without bFGF (10 ng/ml) and arsenolite (100 nM) per well were added. After 48 or 96 hours, tube formation was examined under inverted microscopy.

[1] = Tolerability of treated rats in the corneal micropocket study; type: in vivo, Sprague Dawley rat; conditions: oral, 50 mg/kg/day for 7 days
Protocol: To further investigate the antiangiogenic activity of arsenolite in vivo, the inhibitory effect of systematically administered arsenolite on bFGF-induced neovascularization was studied. The corneal micropocket assay was performed by slight modification of a reported procedure (Polverim P J, Bouck N P, Rastinejad F. Assay and purification of naturally occurring inhibitor of angiogenesis, Methods Enzymol. 1991; 198: 440-450). That is, rats were anesthetized with ketamine. A corneal pocket was made by inserting a cataract knife, with the pocket's base 1-1.5 mm from the limbus. […] The corneal neovascularization in both eyes of all animals were examined daily with a slit lamp and the angiogenic responses were evaluated on day 7. The area of conical neovascularization was determined by measuring with a reticule the vessel length (L) from the limbus and the number of clock hours (C) of limbus involved as previously reported (D'Amato R I, Loughnan M S, Flynn E, Foulkman J, Thalidomide is an inhibitor of angiogenesis. Proc Natl Acad Sci USA Apr. 26, 1994; 91(9):4082-5). A formula was used to determine the area of a circular band segment: C/12×3.1416[r^2−(rL)^2], where r=5 mm, the measured radius of rat cornea. […]

[2] = tested on: bFGF-induced rat corneal neovascularization; experiment: Corneal micropocket angiogenesis assay; type: in vivo, Sprague Dawley rat; conditions: oral; for bFGF-induced corneal neovascularization: 50 mg/kg/day for 7 days
Protocol: To further investigate the antiangiogenic activity of arsenolite in vivo, the inhibitory effect of systematically administered arsenolite on bFGF-induced neovascularization was studied. The corneal micropocket assay was performed by slight modification of a reported procedure (Polverim P J, Bouck N P, Rastinejad F. Assay and purification of naturally occurring inhibitor of angiogenesis, Methods Enzymol. 1991; 198: 440-450). That is, rats were anesthetized with ketamine. A corneal pocket was made by inserting a cataract knife, with the pocket's base 1-1.5 mm from the limbus. Pellets were made by mixing 30 μl of saline containing 2 μg of recombinant bFGF (R&D Systems, Minneapolis, Minn. U.S.A.) with 300 μg of sucralfate (Sigma, St. Louis, Mo., U.S.A.); this suspension was added to 30 μl of 12% (wt/vol) poly (2-hydroxyethyl methacylate) (Sigma, St. Louis, Mo., U.S.A.) in ethanol. Aliquots of this mixture were then pined onto Teflon pegs and allowed to dry producing approximately 17 pellets so that each pellet contains approximately 100 ng of bFGF. A pellet was implanted into corneal micropockets of each eye of an anesthetized male Sprague Dawley rat, followed by a single topical application of erythromycin ointment on the surface of the cornea. The animals were fed daily from the day of implantation by gastric lavage with 50 mg/kg of arsenolite powder for the treatment group, and the same foods and water without arsenolite for the control group. The corneal neovascularization in both eyes of all animals were examined daily with a slit lamp and the angiogenic responses were evaluated on day 7. The area of conical neovascularization was determined by measuring with a reticule the vessel length (L) from the limbus and the number of clock hours (C) of limbus involved as previously reported (D'Amato R I, Loughnan M S, Flynn E, Foulkman J, Thalidomide is an inhibitor of angiogenesis. Proc Natl Acad Sci USA Apr. 26, 1994; 91(9):4082-5). A formula was used to determine the area of a circular band segment: C/12×3.1416[r^2−(rL)^2], where r=5 mm, the measured radius of rat cornea.

[3] = 28-day oral administration toxicity in rat; type: in vivo, Sprague Dawley rat
[4] = tested on: bovine capillary endothelial (BCE) cells; experiment: Chemotaxis assay in modified Boyden chambers (bFGF as chemoattractant); type: cell-based
Protocol: Chemotaxis assays were performed using modified Boyden chambers, which is equipped with polycarbonate nucleopore membrane (Boyden Chamber, Corning, Coring, N.Y.) described in Journal (Veronique Rigot, Maxime Lehmann, Frederic andre, Noucha Daemi, Jacques Marvaldi and Jose Luis: Integrin ligation and PKC activation are required for migration of colon carcinoma cells. Journal of cell science 111, 3119-3129 (1998)). Pre-coated filters (6.5 mm in diameter, 8 μm pore-size, Matrigel 100 μg/cm^2) were re-hydrated with 250 μl of medium, and 1×10^5 cells in 200 μl medium with or without arsenolite (at concentrations of 10 nM, 20 nM, 50 nM, 100 nM and 200 nM) in triple respectively were seeded into the upper part of each chamber, whereas the lower compartment was filled with 200 μl of serum free DMEM supplemented with 0.1% BSA and with (positive control) or without (negative control) 10 ng/ml bFGF as a chemoattractant. After the cells were incubated at 37° C. for 72 hours, non-migrated cells on the upper surface of the filter were wiped with a cotton swab, and migrated cells on the lower surface of the filter were fixed and stained with 0.125% Cumassie Blue in a mixture of methanol: acetic acid: water at the ratio of 45:10:45 by volume. Chemotaxis was determined by counting cells in five microscopic fields per well, and the extent of migration is expressed as an average number of cells per each microscopic field.

[5] = tested on: bovine capillary endothelial (BCE) cells; experiment: Endothelial cell proliferation assay (bFGF-stimulated); type: cell-based
Protocol: Male Sprague-Dawley rats weighing 200 g were used as an experimental animal. Arsenolite (solid As4O6) was dissolved in water until it becomes a 1 mM of stock solution, and kept at the room temperature. Bovine capillary endothelial (BCE) cells were provided by Dr. Tae-Hee Lee (Lee, T. H., Rhim, T., and Kim, S. S. (1998). Prothromb inkringle-2 domain has a growth inhibitory activity against basic fibroblast growth factor-stimulated capillary endothelial cells. J. Biol. Chem 273, 28805-28812). BCE cells were preserved in Dulbecco's modified Eagle's medium (DMEM) supplemented with 10% heat-inactivated bovine calf serum (BCS; Hyclone Laboratories, Logan, Utah) L-glutamine (2 mM), penicillin (110 units/ml), streptomycin (100 μg/ml) and 1.5 ng/ml recombinant human basic fibroblast growth factor (bFGF; R&D Systems, Minneapolis, Minn.). Then, the cells were incubated at 37° C. under 10% CO2 condition. The cells between 10-15 passages were employed in this experiment.
Endothelial proliferation assay was performed as described by Cao et al. (Cao, Y., A., An, S. S. A., Ji, R. W., Davodson, D., Cao, Y., and Llinas, M. (1997) Kringle 5 of plasminogen is a novel inhibitor for endothelial cell growth. J. Biol. Chem. 271, 22924-22928). […] After 72 hours of incubation, the cells were trypsinized and counted using a hemocytometer. […]

[6] = oral administration; cited from earlier work

O1[As]2O[As]3O[As]1O[As](O2)O3 [arsenolite, Tetraarsenic oxide]
generation of tubes by BCE cells (BCE cells): reduced | weight loss or unusual behavior over the course of the treatment [1]: did not experience weight loss or unusual behavior | bFGF-induced corneal neovascularization [2]: significantly inhibited | bFGF-induced corneal neovascularization ([2]; listed as angiogenesis inhibitor of the present invention): noticeably suppressed | density of corneal vessels compared with control animals ([2]; 50 mg/kg/day, day 7): markedly reduced | inhibition of clock hours of corneal circumferential neovascularization ([2]; 50 mg/kg/day, day 7): more than 60% | inhibition of vessel length of corneal neovascularization ([2]; 50 mg/kg/day, day 7): more than 60% | suppression of area of neovascularization ([2]; 50 mg/kg/day, day 7, area calculated from length and clock hours): approximately 90% | side effect ([3]; oral 1 mg/kg for 28 days): none of side effect was observed | side effect ([3]; oral 10 mg/kg for 28 days): none of side effect was observed | histological alterations in kidney ([3]; oral 100 mg/kg for 28 days): only minor histological alterations was observed in kidney | side effect on gastrointestinal and liver ([3]; oral 100 mg/kg for 28 days): no side affect on gastrointestinal and liver | IC50 ([4]; 10 ng/ml bFGF, 72 hours, read-out: inhibition of bFGF-induced invasiveness (chemotaxis), IC50): 48 nM | inhibition of bFGF-induced invasiveness (chemotaxis) ([4]; at 100 nM, 10 ng/ml bFGF, 72 hours): 83.4% | cell morphological changes associated with apoptotic endothelial cells (detachment, rounding, fragmentation) ([4]; chemotaxis assay, 10 to 200 nM): none of distinct cell morphological changes | IC50 ([5]; 3 ng/ml bFGF, 72 hours incubation, cell count, read-out: inhibition of BCE cell proliferation, IC50): 99 nM | cell morphological changes associated with apoptotic endothelial cells (detachment, rounding, fragmentation) ([5]; after a 3-day incubation, 10 to 200 nM): No distinct cell morphological changes

arsenic trioxide
side effect on gastrointestinal and liver [6]: caused serious side effect on gastrointestinal and liver
